Experiments:
Set-up in all cases: species or system AML cell lines (8); Primary HTS, single concentration about 10 uM, Cell Titer Glo viability; log10 luminescence, per cent inhibition relative to cycloheximide control
Details in all cases: 72 h, relative to cycloheximide control, log10 luminescence; inhibitor
U937 = tested on: U937
M07e = tested on: M07e
CMS = tested on: CMS
ML-2 = tested on: ML-2
CHRF288-11 = tested on: CHRF288-11
CMK = tested on: CMK
MV4-11 = tested on: MV4-11
MOLM-13 = tested on: MOLM-13

Compound	U937 %inh (U937) [%]	M07e %inh (M07e) [%]	CMS %inh (CMS) [%]	ML-2 %inh (ML-2) [%]	CHRF288-11 %inh (CHRF288-11) [%]	CMK %inh (CMK) [%]	MV4-11 %inh (MV4-11) [%]	MOLM-13 %inh (MOLM-13) [%]
Cc1cc(O)cc(C)c1/C=C/c1cncc(C(=O)N(C)C)c1 [SJ000573241-1, U11962/4/2]	-1.176	3.606	2.581	-0.6112	4.933	1.656	0.1016	-1.208
COC(=O)c1ccc2c(c1)C(=Cc1cc(Br)c(O)c(Br)c1)C(=O)N2 [SJ000573242-1, U8097/138/1]	4.474	3.423	10.7	8.878	6.512	10.16	16.92	7.69
NCc1ccc(-c2nc(-c3ccc(Cl)c(O)c3)c(-c3ccncc3)[nH]2)cc1 [SJ000573243-1, AN48585-012A1]	-0.0474	3.038	-0.03858	1.975	-2.078	0.6536	1.86	4.769
CCn1c(-c2nonc2N)nc2cnc(Oc3cccc(NC(=O)c4ccc(N(C)C)cc4)c3)cc21 [SJ000573244-1, DG202759-186A1]	5.13	-4.099	1.931	13.68	1.25	54.89	28.29	0.8338
CC(=O)NCc1cccc(C#Cc2cncnc2Nc2ccc(OCc3cccc(F)c3)c(Cl)c2)c1 [SJ000573245-1, U17810/92/1]	4.477	1.428	2.982	1.051	-2.703	4.208	1.627	4.772
CN1CCC(n2cnc(-c3ccc(F)cc3)c2-c2ccnc(NCCO)n2)CC1 [SJ000573246-1, TG19207-178A1]	1.73	3.039	-0.04607	6.134	13.91	15.99	13.81	21.36
c1ccc(Cc2nc3ccc(Nc4ncnc5ccccc45)cc3[nH]2)cc1 [SJ000573247-1, C3072/110/1]	-1.321	0.8889	0.8443	2.215	3.355	-4.013	1.262	6.702
COc1ccc2cc(-c3c(-c4ccncc4)nc(-c4ccc([S+](C)[O-])cc4C)n3C)ccc2c1 (centres unmarked) [SJ000573248-1, NJ44157-082A1]	1.089	7.477	2.672	0.217	5.983	1.35	7.703	2.934
CNC(=O)c1cncc(/C=C/c2c(C)cccc2C)c1 [SJ000573249-1, U12068/55/2]	-0.6106	6.499	2.842	1.303	2.946	2.958	1.251	0.7031
FC(F)(F)c1cccc(Nc2nccc(-c3cnn4nc(-c5ccccc5)ccc34)n2)c1 [SJ000573250-1, U17838/151/2]	-0.9941	2.996	3.035	-0.4365	8.085	0.1975	3.227	2.078
NC(=O)c1ccc(-c2nc(-c3ccccn3)c(-c3ccc4c(c3)OCO4)[nH]2)cc1 [SJ000573251-1, TH48888-160A1]	-1.697	3.715	1.606	2.652	1.837	9.718	2.981	3.34
Fc1cccc(COc2ccc(Nc3ncnc4cc(-c5ccc[nH]5)sc34)cc2Cl)c1 [SJ000573252-1, U16950/26/1]	11.09	5.221	15.37	17.93	1.14	115.2	9.963	14.24
COc1ccccc1-c1cc(/C=C2\C(=O)Nc3ncc(Br)cc32)cc(Br)c1O [SJ000573253-1, U16719/161/1]	-3.171	2.858	-1.153	1.918	-3.427	2.536	0.2955	-1.113
OCc1ccc(-c2nc(-c3ccc4c(c3)OCO4)c(-c3ccccn3)[nH]2)cc1 [SJ000573254-1, FH98924-116A1]	-3.528	0.7981	0.5352	2.365	-3.015	-1.373	-0.8385	0.3005
COc1cc2ncn(-c3cc(OCc4cccs4)c(C(N)=O)s3)c2cc1OC [SJ000573255-1, U21051/7/15]	17.16	12.77	9.159	24.59	6.199	-3.278	6.732	63.69
CC1=C(C(=O)Nc2ccc3[nH]ncc3c2)C(c2ccc(Cl)c(Cl)c2)CC(=O)N1 (centres unmarked) [SJ000573256-1, SD205340-087A3]	2.616	6.129	3.826	6.91	13.93	25.41	13.75	0.01758
C[C@@H](Oc1cc(-n2cnc3ccc(OCC4CCN(C)CC4)cc32)sc1C(N)=O)c1ccccc1C(F)(F)F [SJ000573257-1, U20395/196/2]	73.66	98.02	75.53	59.84	130.5	97.6	86.97	108.4
CNC(=O)c1cncc(/C=C/c2c(Cl)cccc2Cl)c1 [SJ000573258-1, U12068/57/2]	3.831	7.169	3.911	-0.3801	-0.5271	4.903	3.453	2.751
COc1ccc(Nc2ncc(-c3ccccc3)o2)cc1OC [SJ000573259-1, U14961/58/1]	-1.171	6.596	0.9883	4.567	-4.817	5.775	88.15	83.48
